Converted amounts (≈) assume the structure as drawn.

The subject of assay [1] is C. albicans G5. As to the kind of experiment: microbe, parasite or virus in culture. The format is cell-based. The settings on record: Candida albicans, G5. The method, boiled down: (§1)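 CLSI microbroth dilution in RPMI1640 using final drug concentrations of 0.0156–64 μg/mL. C. albicans inoculum was 1 × 10^3 CFU/mL, and Candida plates were incubated at 35°C for 24 h. MIC was read as visible growth inhibition versus the drug-free control, in duplicate.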

In assay [2] the test system is C. albicans Gu5. As to the kind of experiment: microbe, parasite or virus in culture. Format: cell-based. The note with it: Candida albicans, GU5. Put shortly:
as §1

The test system of assay [3] is C. albicans SC5314 cells. The experiment in a line: Intracellular free iron levels using FeRhoNox-1. Format: cell-based, Candida albicans. The settings on record: 0.5 μg/mL, 6 h, compared with untreated cells. As to the method:
FeRhoNox-1 is a commercially available fluorescent probe that specifically binds Fe^2+ and is used to measure intracellular Fe^2 + content. C. albicans SC5314 cells cultured overnight were diluted to roughly 1 × 10^6 cells/mL in RPMI 1640 medium and challenged with various doses of 19ak for 6 h. Next, the cells were fixed with 4% paraformaldehyde for 1 h. After washing three times with PBS, the cells were stained with 5 μM FeRhoNox-1 for 30 min and analyzed by flow cytometry (Becton, Dickinson, CA, USA). Mammalian cells culture is according to the method described in Cytotoxicity testing which was described in Supplemental material in detail. After 12 h of treatment with different concentrations of 19ak, the supernatant was discarded and washed three times with PBS. Cells were collected after staining with FeRhoNox-1 for 30 min in the dark, and the fluorescence intensity of stained cells was analyzed by flow cytometry.

Assay [4] deals with C. albicans SC5314 cells. The experiment in a line: Mitochondrial membrane potential by Rh123. Format: cell-based, Candida albicans. The settings on record: 0.125-1 μg/mL, 30°C, 6 h. As to the method: the fluorescent complex […] (CTF) is commonly used to indicate the intensity of microbial respiration. C. albicans SC5314 treated with 19ak was stained with 1 mM CTC for 30 min, followed by flow cytometry analysis of respiratory activity based on fluorescence intensity. Images of cells were obtained using a fluorescence microscope (IX71, Olympus, Tokyo, Japan). The Cell Counting Kit-8 (CCK-8) assay is used to measure the dehydrogenase activity in the mitochondria of C. albicans or mammalian cells. C. albicans SC5314 (5 × 10^6 cells/mL in RPMI1640 medium) were treated with different concentrations of 19ak in 96-well plates at 30°C for 12 h or 48 h. […] After an additional 2 h of incubation, OD450 in each well was detected with a microplate reader. […]
Mitochondrial isolation and detection of mitochondrial respiratory chain complex activity. […] The activities of mitochondrial respiratory chain complexes I-IV were determined by using the Micro Mitochondrial Respiratory Chain Complex Activity Assay Kit (Solarbio, Beijing, China). The concentration of protein was determined using the BCA Protein Assay Kit (Beyotime, Haimen, China).
Mitochondrial complex activity was expressed as nmol/min/mg protein. […]
Measurement of intracellular ATP production. […] Cellular protein concentrations were determined using a BCA Protein Assay Kit (Beyotime, Haimen, China). […]

For `C/C(=N\NC(=S)N(C)C)c1ccccn1` [Compound 19ak], the MIC80 is 1 µg/mL (≈ 4.5 µM) in assay [1] and 0.25 µg/mL (≈ 1.12 µM) in assay [2]. Further, in assay [3], the “Intracellular labile ferrous ions (FeRhoNox-1)” value is reported as “obvious drop”. Besides, the “Mitochondrial membrane potential (mtΔψ), Rh123” value in assay [4] was “decrease in mtΔψ”.
